Experimental data reported in the CheMixHub viscosity set.
Several values for one entry are separate records, joined by “and”; a condition that tells them apart may be missing. Equal entries are not always repeated.

Experiment: xn = mol fraction of the nth substance listed
Conditions: 101 kPa

CCC(O)CO (stereo unspecified) + O
viscosity
Conditions | 293.15 K | 298.15 K | 303.15 K | 308.15 K | 313.15 K | 318.15 K | 323.15 K
x1 = 0.005 | 1.087 mPa·s | 0.964 mPa·s | 0.865 mPa·s | 0.783 mPa·s | – | – | –
x1 = 0.0099 | – | – | 0.935 mPa·s | 0.838 mPa·s | 0.756 mPa·s | 0.687 mPa·s | 0.628 mPa·s
x1 = 0.01 | 1.188 mPa·s | 1.034 mPa·s | 0.919 mPa·s | 0.824 mPa·s | – | – | –
x1 = 0.015 | 1.285 mPa·s | 1.129 mPa·s | 0.978 mPa·s | – | – | – | –
x1 = 0.02 | 1.372 mPa·s | 1.204 mPa·s | 1.099 mPa·s and 1.052 mPa·s | 0.976 mPa·s | 0.874 mPa·s | 0.789 mPa·s | 0.716 mPa·s
x1 = 0.0299 | – | – | 1.268 mPa·s | 1.117 mPa·s | 0.993 mPa·s | 0.89 mPa·s | 0.802 mPa·s
x1 = 0.0401 | – | – | 1.459 mPa·s | 1.275 mPa·s | 1.126 mPa·s | 1.002 mPa·s | 0.9 mPa·s
x1 = 0.0496 | – | – | 1.639 mPa·s | 1.422 mPa·s | 1.247 mPa·s | 1.104 mPa·s | 0.986 mPa·s
x1 = 0.0599 | – | – | 1.856 mPa·s | 1.599 mPa·s | 1.394 mPa·s | 1.229 mPa·s | 1.092 mPa·s
x1 = 0.0701 | – | – | 2.073 mPa·s | 1.776 mPa·s | 1.54 mPa·s | 1.351 mPa·s | 1.193 mPa·s
x1 = 0.0799 | – | – | 2.279 mPa·s | 1.944 mPa·s | 1.679 mPa·s | 1.467 mPa·s | 1.292 mPa·s
x1 = 0.0899 | – | – | 2.493 mPa·s | 2.12 mPa·s | 1.823 mPa·s | 1.587 mPa·s | 1.395 mPa·s
x1 = 0.0999 | – | 3.41 mPa·s | 2.736 mPa·s and 2.855 mPa·s | 2.311 mPa·s and 2.445 mPa·s | 1.98 mPa·s and 2.138 mPa·s | 1.718 mPa·s | 1.506 mPa·s
x1 = 0.2006 | – | 6.704 mPa·s | 5.489 mPa·s | 4.586 mPa·s | 3.907 mPa·s | – | –
x1 = 0.3009 | – | 10.27 mPa·s | 8.312 mPa·s | 6.887 mPa·s | 5.759 mPa·s | – | –
x1 = 0.4001 | – | 14.49 mPa·s | 11.54 mPa·s | 9.39 mPa·s | 7.779 mPa·s | – | –
x1 = 0.5025 | – | 19.54 mPa·s | 15.45 mPa·s | 12.42 mPa·s | 10.14 mPa·s | – | –
x1 = 0.5987 | – | 25.28 mPa·s | 19.39 mPa·s | 15.5 mPa·s | 12.54 mPa·s | – | –
x1 = 0.702 | – | 31.76 mPa·s | 24.06 mPa·s | 18.94 mPa·s | 15.12 mPa·s | – | –
x1 = 0.8038 | – | 38.27 mPa·s | 28.82 mPa·s | 22.48 mPa·s | 17.7 mPa·s | – | –
x1 = 0.8972 | – | 45.12 mPa·s | 33.44 mPa·s | 25.72 mPa·s | 20.14 mPa·s | – | –
